{"source": "patent US20070191311A1", "about": "“P2x receptor inhibitor” (priority 2004, published 2007)", "key": {"rat type P2X2/3 receptor": {"biological_target": "T1, rat type P2X2/3 receptor (Rattus norvegicus, UniProt P49653+P49654)", "T1 construct": "expressed in transfected cells; host or cells: CHO cells (selected with G-418)", "T1 sequence (P49653 1-472)": "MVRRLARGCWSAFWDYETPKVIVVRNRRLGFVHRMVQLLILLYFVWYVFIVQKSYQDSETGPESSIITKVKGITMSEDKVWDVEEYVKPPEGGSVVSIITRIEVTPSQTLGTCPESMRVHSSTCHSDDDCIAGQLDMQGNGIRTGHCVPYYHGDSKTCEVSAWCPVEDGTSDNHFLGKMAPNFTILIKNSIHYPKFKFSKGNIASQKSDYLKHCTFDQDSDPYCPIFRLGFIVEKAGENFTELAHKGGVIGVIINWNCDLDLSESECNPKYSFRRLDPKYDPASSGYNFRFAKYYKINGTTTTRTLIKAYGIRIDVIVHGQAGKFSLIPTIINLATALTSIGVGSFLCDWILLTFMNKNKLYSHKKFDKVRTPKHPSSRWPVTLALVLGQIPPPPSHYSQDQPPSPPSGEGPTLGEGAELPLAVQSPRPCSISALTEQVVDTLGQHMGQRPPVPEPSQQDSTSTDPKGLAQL", "T1 sequence (P49654 1-397)": "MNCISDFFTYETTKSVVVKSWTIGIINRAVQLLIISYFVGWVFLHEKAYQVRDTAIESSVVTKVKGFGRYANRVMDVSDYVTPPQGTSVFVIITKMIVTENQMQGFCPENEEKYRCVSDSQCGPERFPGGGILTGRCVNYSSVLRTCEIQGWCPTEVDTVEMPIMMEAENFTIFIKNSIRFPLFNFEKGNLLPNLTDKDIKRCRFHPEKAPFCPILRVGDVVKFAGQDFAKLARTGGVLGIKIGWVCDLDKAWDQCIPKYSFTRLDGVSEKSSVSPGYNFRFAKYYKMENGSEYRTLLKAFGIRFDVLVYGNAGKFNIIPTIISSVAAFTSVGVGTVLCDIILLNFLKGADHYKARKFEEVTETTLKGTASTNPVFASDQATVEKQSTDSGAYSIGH", "assay": "P2X2/3 receptor inhibitory activity ([14C]-guanidine uptake stimulated by αβ-me ATP in CHO cells)", "format": "cell-based", "settings": "for IC50: CHO cell expressing rat type P2X2/3 receptor, 4 μM αβ-me ATP, [14C]-guanidine, 15 minutes room temperature, read-out: IC50 (concentration which inhibits 50% of the function of P2X2/3 receptor); for P2X2/3,3 receptor inhibitory activity (in words): Table 1", "description": "On the day before the test, the resulting cells were inoculated onto a 96-well culture plate at a density of about 6×10^4 cells/well and cultured for 24 hours in the medium containing 2 units/ml of apyrase 2."}, "[1]": {"settings": "in vivo; cited from earlier work"}, "[2]": {"tested_on": "patients of multiple myeloma", "settings": "oral 6 mg once a day; 24 weeks; cited from earlier work"}, "mouse": {"tested_on": "mouse", "assay": "Formalin induced pain behavior", "format": "in vivo", "method": "The test substance or solvent was subcutaneously administered to each mouse at a volume of 10 ml/kg. After 30 minutes thereof, formalin was administered under the skin of one sole (2.0%, 20 μl/body). Total time of lifting (a behavior of lifting the administered side sole from the floor face) and licking (a behavior of licking and biting the administered side sole) occurred during every 5 minutes was measured over 30 minutes starting just after the administration of formalin. By defining the period of from 0 to 5 minutes after the formalin administration as a phase I (Phase I), and that of from 10 to 30 minutes as a phase II (Phase II), the total time of lifting and licking occurred in each phase was calculated."}, "[3]": {"tested_on": "patients of bone metastasis of breast cancer and bone metastasis of lung cancer", "assay": "Clinical test in patients of bone metastasis of breast cancer and lung cancer", "format": "in vivo, human", "settings": "1 or 2 mg once in 2 weeks for 12 weeks; from the initial evaluation time (1st week)"}, "mice [4]": {"tested_on": "mice", "assay": "Acetic acid induced pain behavior (writhing)", "format": "in vivo", "description": "This test was carried out with reference to the method described in Pain, 96, p. […] After 30 minutes thereof, 0.6% acetic acid was intraperitoneally administered (10 ml/kg). Frequency of writhing (a body writhing behavior) occurred within a period of 15 minutes, starting from 2 minutes after the acetic acid administration until 17 minutes thereafter, was measured. The test was carried out twice as the test 1 and test 2. Test on the statistical significant difference between the solvent administration group used as a control group and the test substance administration group was carried out using the Dunnett method."}, "mice [5]": {"tested_on": "mice", "assay": "αβ-me ATP induced pain behavior", "format": "in vivo", "settings": "for αβ-me ATP induced pain behavior (total time of lifting and licking): 30 minutes before αβ-me ATP, significant difference to control", "description": "16 (2000). […] Total time of lifting (a behavior of lifting the administered side sole from the floor face) and licking (a behavior of licking and biting the administered side sole) occurred during 5 minutes just after the administration of αβ-me ATP was measured. […] Test on the statistical significant difference between the solvent administration group used as a control group and the test substance administration group was carried out using the Dunnett method."}, "cancer patients": {"tested_on": "cancer patients", "settings": "clinical test; cited from earlier work"}, "rat cancer pain model": {"tested_on": "rat cancer pain model", "settings": "continuously administered for 19 days; cited from earlier work"}}, "data": [{"compound": "O=P(O)(O)C(Cl)(Cl)P(=O)(O)O", "note": "[clodronate]", "values": [{"measurement": "IC50", "setting": "rat type P2X2/3 receptor", "value": "> 300", "unit": "µM"}, {"measurement": "P2X2/3,3 receptor inhibitory activity (in words)", "setting": "rat type P2X2/3 receptor", "value": "did not show the P2X2/3,3 receptor inhibitory activity"}, {"measurement": "analgesic action in the tail-flick test", "setting": "[1]", "value": "dose-dependent analgesic action"}]}, {"compound": "O=P(O)(O)C(O)(Cc1cnc2ccccn12)P(=O)(O)O", "note": "[minodronic acid hydrate]", "values": [{"measurement": "bone pain in multiple myeloma patients", "setting": "[2]", "value": "improved"}, {"measurement": "used amount of an analgesic in multiple myeloma patients", "setting": "[2]", "value": "reduced"}, {"measurement": "formalin induced pain behavior, Phase I (0 to 5 minutes)", "setting": "mouse; 30 mg/kg s.c.", "value": "did not exert influence"}, {"measurement": "formalin induced pain behavior, Phase II (10 to 30 minutes)", "setting": "mouse; 30 mg/kg s.c.", "value": "suppressed"}, {"measurement": "behavioral side effect at the time of the pain behavior observation", "setting": "mouse; formalin test", "value": "not observed"}]}, {"compound": "O=P(O)(O)C(O)(Cc1cnc2ccccn12)P(=O)(O)O", "note": "[minodronic acid, 1-hydroxy-2-(imidazo[1,2-a]pyridin-3-yl)ethane-1,1-bisphosphonic acid]", "values": [{"measurement": "pain value (bone pain) in patients", "setting": "[3]", "value": "reducing tendency of pain value was observed"}, {"measurement": "P2X2/3,3 receptor inhibitory activity (in words)", "setting": "rat type P2X2/3 receptor", "value": "good receptor inhibitory activity"}, {"measurement": "behavioral side effect at the time of the pain behavior observation", "setting": "mice [4]; acetic acid test", "value": "not observed"}, {"measurement": "writhing behavior (acetic acid induced)", "setting": "mice [4]; s.c., 10 and 30 mg/kg, 0.6% acetic acid i.p.", "value": "dose-dependently suppressed"}, {"measurement": "αβ-me ATP induced pain behavior (total time of lifting and licking)", "setting": "mice [5]; 30 mg/kg i.p.", "value": "suppressed"}, {"measurement": "αβ-me ATP induced pain behavior (total time of lifting and licking)", "setting": "mice [5]; 10 to 50 mg/kg s.c.", "value": "suppressed"}, {"measurement": "behavioral side effect at the time of the pain behavior observation", "setting": "mice [5]; αβ-me ATP test", "value": "not observed"}]}, {"compound": "NCCC(O)(P(=O)(O)O)P(=O)(O)O", "note": "[pamidronate]", "values": [{"measurement": "IC50", "setting": "rat type P2X2/3 receptor", "value": "> 300", "unit": "µM"}, {"measurement": "P2X2/3,3 receptor inhibitory activity (in words)", "setting": "rat type P2X2/3 receptor", "value": "did not show the P2X2/3,3 receptor inhibitory activity"}, {"measurement": "analgesic action in the tail-flick test", "setting": "[1]", "value": "dose-dependent analgesic action"}]}, {"compound": "Cc1ccc(C(=O)Nc2ccc(S(=O)(=O)O)c3cc(S(=O)(=O)O)cc(S(=O)(=O)O)c23)cc1NC(=O)c1cccc(NC(=O)Nc2cccc(C(=O)Nc3cc(C(=O)Nc4ccc(S(=O)(=O)O)c5cc(S(=O)(=O)O)cc(S(=O)(=O)O)c45)ccc3C)c2)c1", "note": "[suramin]", "values": [{"measurement": "IC50", "setting": "rat type P2X2/3 receptor", "value": 194, "unit": "µM"}, {"measurement": "pain score in cancer patients", "setting": "cancer patients", "value": "reduction of pain score was observed"}]}, {"compound": "O=P(O)(O)C(O)(Cn1ccnc1)P(=O)(O)O", "note": "[zoledronate]", "values": [{"measurement": "IC50", "setting": "rat type P2X2/3 receptor", "value": "> 300", "unit": "µM"}, {"measurement": "P2X2/3,3 receptor inhibitory activity (in words)", "setting": "rat type P2X2/3 receptor", "value": "did not show the P2X2/3,3 receptor inhibitory activity"}, {"measurement": "mechanical allodynia and mechanical hyperalgesia accompanied by cancer pain", "setting": "rat cancer pain model", "value": "inhibit"}]}, {"compound": "trinitrophenyl (TNP)-ATP [TNP-ATP]", "values": [{"measurement": "IC50", "setting": "rat type P2X2/3 receptor", "value": 0.18, "unit": "µM"}]}]}
